The source made the active and inactive calls. No cut-off for these calls is given here.
Experiments:
[1] = target: Neuronal acetylcholine receptor; alpha4/beta4 (Homo sapiens) (UniProt P30926+P43681); assay: Intrinsic activity at human alpha4beta4 nAChR receptor expressed in human SH-SY5Y cells assessed as 86Rb+ efflux at 5 to 100 uM by liquid scintillation counting; format: cell-based
[2] = organism: Mus musculus; assay: Antinociceptive activity in ICR mouse assessed as inhibition of nicotine-induced response by hotplate test; format: functional
[3] = target: Sodium-dependent noradrenaline transporter (Homo sapiens, UniProt P23975); assay: Inhibition of [3H]norepinephrine uptake at human NET expressed in HEK293 cells; format: cell-based
Sequence of Sodium-dependent noradrenaline transporter (P23975 whole entry): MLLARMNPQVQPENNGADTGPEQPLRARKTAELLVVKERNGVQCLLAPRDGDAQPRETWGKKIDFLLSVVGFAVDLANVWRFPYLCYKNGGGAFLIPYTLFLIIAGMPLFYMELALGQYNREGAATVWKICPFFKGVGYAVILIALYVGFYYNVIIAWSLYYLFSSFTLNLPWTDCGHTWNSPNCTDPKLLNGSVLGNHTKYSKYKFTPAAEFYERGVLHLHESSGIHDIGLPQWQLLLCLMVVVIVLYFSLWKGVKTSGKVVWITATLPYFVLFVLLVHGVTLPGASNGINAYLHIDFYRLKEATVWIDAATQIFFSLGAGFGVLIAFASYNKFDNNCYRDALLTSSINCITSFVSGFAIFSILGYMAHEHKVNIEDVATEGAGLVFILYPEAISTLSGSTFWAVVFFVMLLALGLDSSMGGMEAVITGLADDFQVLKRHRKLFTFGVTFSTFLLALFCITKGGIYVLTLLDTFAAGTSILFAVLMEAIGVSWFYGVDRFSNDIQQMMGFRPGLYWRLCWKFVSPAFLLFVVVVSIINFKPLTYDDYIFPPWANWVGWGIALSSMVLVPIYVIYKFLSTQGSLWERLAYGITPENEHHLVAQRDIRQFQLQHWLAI

[4] = target: Neuronal acetylcholine receptor; alpha3/beta4 (Homo sapiens) (UniProt P30926+P32297); assay: Intrinsic activity at alpha3beta4 nAChR receptor in human SH-SY5Y cells assessed as 86Rb+ efflux at 5 to 100 uM by liquid scintillation counting; format: cell-based
[5] = target: Sodium-dependent dopamine transporter (Homo sapiens, UniProt Q01959); assay: Inhibition of [3H]dopamine uptake at human DAT expressed in HEK293 cells; format: cell-based
Sequence of Sodium-dependent dopamine transporter (Q01959 whole entry): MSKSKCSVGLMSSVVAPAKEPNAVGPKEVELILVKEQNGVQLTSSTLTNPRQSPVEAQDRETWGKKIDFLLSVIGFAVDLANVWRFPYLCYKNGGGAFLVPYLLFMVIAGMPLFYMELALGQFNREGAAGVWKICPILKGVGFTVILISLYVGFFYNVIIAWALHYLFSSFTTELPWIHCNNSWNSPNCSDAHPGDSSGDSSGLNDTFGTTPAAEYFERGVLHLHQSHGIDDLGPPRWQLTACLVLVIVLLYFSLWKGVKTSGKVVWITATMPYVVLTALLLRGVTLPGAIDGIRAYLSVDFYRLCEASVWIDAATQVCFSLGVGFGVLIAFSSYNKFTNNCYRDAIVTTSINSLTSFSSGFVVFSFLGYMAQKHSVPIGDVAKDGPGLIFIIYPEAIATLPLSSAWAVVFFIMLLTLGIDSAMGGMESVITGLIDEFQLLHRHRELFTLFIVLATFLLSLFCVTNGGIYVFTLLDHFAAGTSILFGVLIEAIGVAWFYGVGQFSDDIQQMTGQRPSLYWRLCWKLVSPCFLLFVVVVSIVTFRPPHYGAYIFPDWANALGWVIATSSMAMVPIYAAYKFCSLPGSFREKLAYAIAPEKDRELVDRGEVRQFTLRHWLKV

[6] = organism: Mus musculus; assay: Effect on body temperature in ICR mouse assessed as inhibition of nicotine-induced hypothermic response; format: functional
[7] = target: Acetylcholine receptor; alpha1/beta1/delta/gamma (Homo sapiens) (UniProt P02708+P07510+P11230+Q07001); assay: Intrinsic activity at alpha-1-beta-1-gamma-delta nAChR receptor expressed in human TE671/RD cells assessed as 86Rb+ efflux at 5 to 100 uM by liquid scintillation counting; format: cell-based
[8] = organism: Mus musculus; assay: Effect on behavioral activity in ICR mouse assessed as inhibition of nicotine-induced locomotory response by locomotor assay; format: functional
[9] = target: Neuronal acetylcholine receptor; alpha4/beta2 (Homo sapiens) (UniProt P17787+P43681); assay: Intrinsic activity at human alpha4beta2 nAChR receptor expressed in human SH-SY5Y cells assessed as 86Rb+ efflux at 5 to 100 uM by liquid scintillation counting; format: cell-based
[10] = target: Sodium-dependent serotonin transporter (Homo sapiens, UniProt P31645); assay: Inhibition of [3H]serotonin uptake at human SERT expressed in HEK293 cells; format: cell-based
Sequence of Sodium-dependent serotonin transporter (P31645 whole entry): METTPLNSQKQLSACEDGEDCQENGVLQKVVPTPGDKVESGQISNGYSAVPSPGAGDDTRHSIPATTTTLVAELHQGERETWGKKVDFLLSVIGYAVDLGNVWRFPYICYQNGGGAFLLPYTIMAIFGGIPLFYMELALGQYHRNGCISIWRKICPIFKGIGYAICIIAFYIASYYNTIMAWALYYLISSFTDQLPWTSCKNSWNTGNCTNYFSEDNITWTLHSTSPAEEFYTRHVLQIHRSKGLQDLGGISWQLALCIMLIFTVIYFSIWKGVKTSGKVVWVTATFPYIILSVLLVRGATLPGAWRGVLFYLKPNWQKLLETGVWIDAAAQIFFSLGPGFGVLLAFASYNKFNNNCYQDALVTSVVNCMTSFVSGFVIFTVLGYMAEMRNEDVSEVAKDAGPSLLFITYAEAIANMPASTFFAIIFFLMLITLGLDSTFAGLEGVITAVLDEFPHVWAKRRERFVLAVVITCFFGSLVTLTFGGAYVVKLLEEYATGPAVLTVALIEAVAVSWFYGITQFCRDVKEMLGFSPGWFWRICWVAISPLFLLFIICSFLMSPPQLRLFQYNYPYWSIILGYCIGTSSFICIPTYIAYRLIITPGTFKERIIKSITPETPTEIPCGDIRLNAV

[11] = organism: Mus musculus; assay: Antinociceptive activity in ICR mouse D'Amour and Smith model of pain assessed as inhibition of nicotine-induced response by tail-flick test; format: functional

| SMILES | Activity [1] | AD50 [2] | IC50 [3] | Activity [4] | IC50 [5] | AD50 [6] | Activity [7] | AD50 [8] | Activity [9] | IC50 [10] | AD50 [11] |
| --- | --- | --- | --- | --- | --- | --- | --- | --- | --- | --- | --- |
| CC(NC(C)(C)C)C(=O)c1ccc(Br)cc1 (stereo not given) | inactive | 23.5 mg/kg | 2540 nM | inactive | 689 nM | 29 mg/kg | inactive | inactive | inactive | 4510 nM | 0.15 mg/kg |
| CCC(NC(C)(C)C)C(=O)c1ccc(Cl)c(Cl)c1 (stereo not given) | inactive | inactive | 389 nM | inactive | 118 nM | inactive | inactive | inactive | inactive | 1090 nM | 0.05 mg/kg |
| CCCC(NC(C)(C)C)C(=O)c1ccc(Cl)c(Cl)c1 (stereo not given) | inactive | 15 mg/kg |  | inactive | 31 nM | 17.5 mg/kg | inactive | inactive | inactive | 2300 nM | 0.13 mg/kg |
| CC(NC(C)(C)C)C(=O)c1ccc(F)c(F)c1 (stereo not given) | inactive | inactive | 6480 nM | inactive | 7980 nM | inactive | inactive | inactive | inactive |  | 0.05 mg/kg |
| COc1cccc(C(=O)C(C)NC2CCCC2)c1 (stereo not given) | inactive | inactive | 8200 nM | inactive | 2270 nM | inactive | inactive | inactive | inactive | 6900 nM | inactive |
| CC(NC(C)(C)C)C(=O)c1ccc(Cl)cc1 (stereo not given) | inactive | inactive | 2070 nM | inactive | 1090 nM | 32 mg/kg | inactive | 31 mg/kg | inactive | 9800 nM | 0.43 mg/kg |
| CC(NC(C)(C)C)C(=O)c1ccc(Cl)c(Cl)c1 (stereo not given) | inactive | inactive | 1670 nM | inactive | 463 nM | inactive | inactive | inactive | inactive | 8800 nM | 0.28 mg/kg |
| Cc1ccc(C(=O)C(C)NC(C)(C)C)cc1Cl (stereo not given) | inactive | 7.2 mg/kg | 2040 nM | inactive | 410 nM | 10 mg/kg | inactive | 11 mg/kg | inactive |  | 0.2 mg/kg |
